From PMC10033409, “Autoregulation of GPCR signalling through the third intracellular loop” (Nature, 2023) come the findings set out here.

Test [1] has as its system β2AR. Kind of test: cAMP accumulation (cAMP-Glo), β2AR. It is filed as cell-based, human. As to conditions: Extended Data Figure 6B.
The test system of the next test is PTH1R–Gs peptide. Briefly: PTH1R-luciferase complementation reporter assay, Gs peptide. As to conditions: PTH1R construct named by the receptor or protein whose sequence replaces ICL3 (WT = wild-type); X axis of Figure 5G. It is filed as biochemical, human. In general terms: In a reporter assay the amount or activity of a reporter protein is the signal.
For the next test, the system named is PTH1R–Gq peptide. Kind of test: PTH1R-luciferase complementation reporter assay, Gq peptide. It is filed as biochemical, human. As to conditions: PTH1R construct named by the receptor or protein whose sequence replaces ICL3 (WT = wild-type); Y axis of Figure 5G. The procedure:
For PTH1R luciferase complementation reporter assays, cells were seeded the day prior to transfection at 25-30% confluence on 12-well plates. For each transfection, 0.5 μg DNA, 1.5 μl X-tremeGENE HP, and 100 μl Opti-MEM were combined, incubated for 15-20 min, and added to seeded wells. For each mutant, PTH1R-Gs peptide, PTH1R-Gq peptide and PTH1R-(no peptide) constructs were transfected in parallel. Spep and Qpep constructs were transfected 24 h prior to collection, and no-peptide constructs were transfected 18 h before collection. […] Media in each well was used to gently shear and resuspend the cells by pipetting. The cell mixture was centrifuged (3 min, 300g) and the media was aspirated. Cell pellet was resuspended in 1 ml PBS and centrifuged again as above. […] Cellular debris was removed by centrifugation (1,000g for 1 min). To collect additional vesicles, debris was resuspended in 0.3 ml PBS, briefly vortexed, and centrifuged again (1,000g for 1 min). The ~0.9 ml of combined decanted supernatant was centrifuged one additional time (1,000g for 2 min) to better remove cellular debris. […] Vesicle samples were collected in a 96-well clear bottom plate and assayed for TagRFP fluorescence (Tecan Spark, excitation 521 nm, emission 585 nm, gain 150). For each set of constructs for a given […] ([…] control), samples were diluted to the lowest TagRFP counts. […] The plate was tapped 2-3 times to mix, and the kinetic read was resumed. Moving averages were computed for each kinetic trace (3-point averages for 5 min equilibration, 8-point moving averages post-drug treatment). Each kinetic trace was normalized to the last point of the pre-drug equilibration. The maximum luminescence value that appeared stable over time was used for further analysis. Specific Spep and Qpep signals were calculated by subtracting the control value from the Spep value and the Qpep value for a given experiment.

For test [2], the target named is T1, A1R (Homo sapiens, UniProt P30542).
T1 sequence (P30542 1-326): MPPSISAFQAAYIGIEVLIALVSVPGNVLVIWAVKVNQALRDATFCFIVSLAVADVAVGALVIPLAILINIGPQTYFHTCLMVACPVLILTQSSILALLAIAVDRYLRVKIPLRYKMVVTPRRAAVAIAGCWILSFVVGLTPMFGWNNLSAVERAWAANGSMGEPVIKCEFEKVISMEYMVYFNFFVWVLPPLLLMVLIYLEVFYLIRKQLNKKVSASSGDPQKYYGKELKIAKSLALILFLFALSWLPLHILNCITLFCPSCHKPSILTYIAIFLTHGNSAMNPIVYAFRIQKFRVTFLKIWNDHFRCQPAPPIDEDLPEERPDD
Briefly: cAMP accumulation, A1R. It is filed as cell-based. As to conditions: AA1R Wild-Type; saturating agonist concentration; 500 µM IBMX. As for the experimental part: (§1) One millilitre of medium was removed from each well containing transfected cells. The remaining volume was used to gently shear and resuspend the cells by pipetting. The cell mixture was centrifuged (3 min, 300g) and media was removed using a vacuum manifold. […] . The cells were washed once by repeating this procedure.
(§2) For all other second messenger assays, expression level and cell density of each condition was estimated through fluorescence. […] Cells were resuspended at 350,000 ± 30,000 fluorescence counts at a wavelength representing optical density of the sample (excitation 430 nm/emission 450 nm), corresponding with 2 × 10^6 ± 5 × 10^5 cells per m^l. This was confirmed by counting the cells on a haemocytometer (Countess II). The following metrics were assessed for optimal expression: mCerulean peak emission (excitation 430 nm/475 nm):optical density emission (excitation 430 nm/emission 450 nm) of 2.0 ± 0.3 and mCitrine peak emission (excitation 490 nm/emission 525 nm):mCerulean peak emission (excitation 430 nm/emission 475 nm) of 2.0 ± 0.2.
(§3) Resuspended cells were added 1:1 with a 2× concentration of ligand (10 µl final) into an opaque 384-well flat bottom plate (Greiner Bio-One). […] . for FSK inhibition assays with β-ARs, 100 µM metoprolol was used. […] Luminescence was measured on a Tecan Spark plate reader (500 ms integration, one measurement per well).
For orientation: cAMP levels reflect the balance of adenylyl cyclase and phosphodiesterase activity.

Test [3] concerns the target T2, A1R (Homo sapiens, UniProt P30542, DEL216-222).
T2 construct: expressed in transfected cells; host or cells: transfected cells (HEK 293T for the β2AR assay)
T2 sequence (P30542 with tags, fused parts or gaps DEL216-222): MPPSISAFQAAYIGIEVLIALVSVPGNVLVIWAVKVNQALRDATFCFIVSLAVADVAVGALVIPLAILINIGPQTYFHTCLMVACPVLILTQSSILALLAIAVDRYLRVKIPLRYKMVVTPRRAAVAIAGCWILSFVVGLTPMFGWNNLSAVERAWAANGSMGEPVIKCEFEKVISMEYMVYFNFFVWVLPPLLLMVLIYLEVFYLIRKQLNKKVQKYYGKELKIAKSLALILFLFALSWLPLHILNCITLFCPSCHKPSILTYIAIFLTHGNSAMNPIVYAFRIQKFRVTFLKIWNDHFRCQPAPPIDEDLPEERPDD
Kind of test: cAMP accumulation, A1R. It is filed as cell-based. The note with it: AA1R ∆ICL3; saturating agonist concentration; 500 µM IBMX. The procedure:
as §1, §2, §3

Test [4] concerns the target T1, A1R. Kind of test: InsP1 accumulation, A1R. It is filed as cell-based. The note with it: AA1R Wild-Type; saturating agonist concentration.
Description: (§6) For all other second messenger assays, expression level and cell density of each condition was estimated through fluorescence. Fluorescence spectra for mCerulean (Horiba Fluoromax 4, excitation 430 nm, emission scan 450–600 nm, bandpass 4 nm) and mCitrine (Horiba Fluoromax 4, excitation 490 nm, emission scan 500–600 nm, bandpass 4 nm) were acquired for each condition. Cells were resuspended at 350,000 ± 30,000 fluorescence counts at a wavelength representing optical density of the sample (excitation 430 nm/emission 450 nm), corresponding with 2 × 10^6 ± 5 × 10^5 cells per m^l. […]
(§7) Resuspended cells were added 1:1 with a 2× concentration of ligand (70 µl final) into an opaque 96-well U-bottom plate (Greiner Bio-One). […] FRET ratio for each reading was calculated as the ratio of acceptor emission to donor emission. InsP1 signal for a drug and transfection combination was calculated as the average FRET ratio of a given transfection condition without drug treatment subtracted from the average FRET ratio of a of a given transfection condition with drug treatment.
Test [5] deals with T2, A1R. Briefly: InsP1 accumulation, A1R. It is filed as cell-based. The note with it: AA1R ∆ICL3; saturating agonist concentration.
Description: as §6, §7
The target of a further test is T3, β2AR L258Azi (Δ350-413) (Homo sapiens, UniProt P07550, L258F).
T3 construct: HA; mNeonGreen, TagRFP or SNAP (differs by sensor design); expressed in transfected cells; host or cells: crude membrane extracts of transfected cells (HEK293), co-transfected with pIRE4-Azi
Kind of test: Time-correlated single photon counting, other sensor designs and dye-only controls (mNeonGreen/Cy3, TagRFP/AZDye488, free dyes). It is filed as biochemical. The note with it: Extended Data Figure 4L.

Another test deals with β2AR–mCerulean (Homo sapiens, UniProt P07550, DEL236-262). The note with it: ∆ICL3 β2AR–mCerulean; 10 µM biotinylated Gq peptide, 100 µM isoproterenol; single experiments 1-4.
The test system of test [6] is β2AR–Gs peptide FRET sensor. Briefly: ∆FRET assay, β2AR–Gs peptide SPASM FRET sensor. As to conditions: wild-type β2AR–Gs peptide sensor.
Test [7] concerns the target β2AR–Gs peptide FRET sensor (Homo sapiens, UniProt P07550, DEL236-257). Briefly: ∆FRET assay, β2AR–Gs peptide SPASM FRET sensor. The note with it: β2AR(∆ICL3)–Gs peptide sensor.
The test system of test [8] is β2AR. The note with it: β2AR(∆ICL3); presence of Gq peptide.
Protocol: (§8) Reactions were equilibrated, washed, and measured following the same procedure listed above for the radioligand antagonist-binding assay. […] Weighted averages of these IC50 values were used for comparison purposes and inhibition constant (Ki) calculations. […] Binding assays were performed in technical duplicates. Three biological replicates were collected with different membrane preparations for each replicate.
Test [9] has as its target β2AR (Homo sapiens, UniProt P07550). As to conditions: wild-type β2AR; presence of Gq peptide.
Protocol: as §8
The target of test [10] is β2AR ICL3 FRET sensor, β2AR(L258Azi/Y350Azi/∆351–413) (Homo sapiens, UniProt P07550, L258F/Y350F). Briefly: Time-correlated single photon counting FRET assay, β2AR ICL3 FRET sensor (AZDye488/AZDye546).
Protocol: Cell membranes were prepared following the procedure in ‘Crude cell membrane extracts’ through the first ultracentrifugation step (135,000g, 25 min, 4 °C). […] Solution was homogenized, first by passing through a 1 ml micropipette 10 times, then passing through a 20-gauge needle 10 times. To initiate the reaction, sodium ascorbate (50 mM) was added to the mixture and mixed by pipetting (2 ml final volume). Reactions were incubated with mild shaking (500 rpm) for 30 min at 25 °C.
For conditions without drug, peptide or nanobody, an equivalent volume of assay buffer was added. Reactions were equilibrated for 5 min prior to reading. […] Time-resolved fluorescence decay data were fit to the equation: Decay=α1e^−t/τ^1+α2e^−t/τ^2+α3e^−t/τ^3
Amplitude-weighted average lifetimes (τavg) were calculated from the three-exponential decay equation: τavg=(α1τ1+α2τ2+α3τ3)/(α1+α2+α3)
Each condition was performed in technical duplicate or triplicate, depending on sensor yield.
Test [11] deals with T4, CB1R (Mus musculus, UniProt P47746, DEL312-328).
T4 construct: expressed in transfected cells; host or cells: transfected cells (HEK 293T for the β2AR assay)
Kind of test: cAMP accumulation, CB1R. As to conditions: CB1R ∆ICL3; saturating agonist concentration; 500 µM IBMX. It is filed as cell-based, murine. As for the experimental part: as §1, §2, §3

In test [12] the target is T5, CB1R (Mus musculus, UniProt P47746).
T5 construct: expressed in transfected cells; host or cells: transfected cells (HEK 293T for the β2AR assay)
Kind of test: cAMP accumulation, CB1R. It is filed as cell-based, murine. The note with it: CB1R Wild-Type; saturating agonist concentration; 500 µM IBMX. The procedure:
as §1, §2, §3

Test [13] concerns the target T4, CB1R. Briefly: InsP1 accumulation, CB1R. It is filed as cell-based, murine. As to conditions: CB1R ∆ICL3; saturating agonist concentration. As for the experimental part: (§4) One millilitre of medium was removed from each well containing transfected cells. The remaining volume was used to gently shear and resuspend the cells by pipetting. The cell mixture was centrifuged (3 min, 300g) and media was removed using a vacuum manifold. […] The cells were washed once by repeating this procedure.
as §2
(§5) Resuspended cells were added 1:1 with a 2× concentration of ligand (70 µl final) into an opaque 96-well U-bottom plate (Greiner Bio-One). […] Plates were incubated at 37 °C for 2 h to stimulate InsP1 production. […] FRET ratio for each reading was calculated as the ratio of acceptor emission to donor emission. […]

For test [14], the target named is T5, CB1R. Kind of test: InsP1 accumulation, CB1R. It is filed as cell-based, murine. As to conditions: CB1R Wild-Type; saturating agonist concentration. As for the experimental part: as §4, §2, §5
The mark [15] stands for this setting: β2AR wild-type and ICL3 alanine mutants, replicates N 1-6, some omitted from analysis.
Where [16] appears, read: Extended Data Figure 6I, replicates 1-4.

Where “and” joins values, the source holds several entries; their conditions need not be identical. Equal values may be shown once.

T4 sequence (P47746 with tags, fused parts or gaps DEL312-328): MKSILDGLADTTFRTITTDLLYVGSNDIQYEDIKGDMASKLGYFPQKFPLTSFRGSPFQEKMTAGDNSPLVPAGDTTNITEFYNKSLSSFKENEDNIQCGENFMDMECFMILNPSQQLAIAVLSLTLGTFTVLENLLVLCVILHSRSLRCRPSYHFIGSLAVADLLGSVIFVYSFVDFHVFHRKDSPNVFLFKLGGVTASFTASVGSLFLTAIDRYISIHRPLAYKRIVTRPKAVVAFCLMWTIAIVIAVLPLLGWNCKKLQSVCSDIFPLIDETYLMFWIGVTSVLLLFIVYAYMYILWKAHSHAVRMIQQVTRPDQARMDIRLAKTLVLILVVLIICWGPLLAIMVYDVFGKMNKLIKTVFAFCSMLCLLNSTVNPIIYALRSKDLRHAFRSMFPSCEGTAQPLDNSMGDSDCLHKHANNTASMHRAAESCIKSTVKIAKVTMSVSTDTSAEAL
T5 sequence (P47746 whole entry): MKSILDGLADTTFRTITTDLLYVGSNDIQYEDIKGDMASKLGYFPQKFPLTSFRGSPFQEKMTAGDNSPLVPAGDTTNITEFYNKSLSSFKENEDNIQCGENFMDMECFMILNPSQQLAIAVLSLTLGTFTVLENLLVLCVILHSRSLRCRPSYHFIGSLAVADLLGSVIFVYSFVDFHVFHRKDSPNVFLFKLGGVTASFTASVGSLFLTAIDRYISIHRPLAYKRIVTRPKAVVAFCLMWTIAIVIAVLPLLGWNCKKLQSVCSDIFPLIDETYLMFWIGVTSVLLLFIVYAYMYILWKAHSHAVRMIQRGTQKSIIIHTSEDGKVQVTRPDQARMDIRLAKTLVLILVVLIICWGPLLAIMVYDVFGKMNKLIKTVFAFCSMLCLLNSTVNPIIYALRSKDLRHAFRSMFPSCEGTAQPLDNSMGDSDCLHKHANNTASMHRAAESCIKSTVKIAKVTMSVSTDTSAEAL
Protocol for PTH1R–Gs peptide: For PTH1R luciferase complementation reporter assays, cells were seeded the day prior to transfection at 25–30% confluence on 12-well plates. For each transfection, 0.5 µg DNA, 1.5 µl X-tremeGENE HP, and 100 µl Opti-MEM were combined, incubated for 15–20 min, and added to seeded wells. […] Spep and Qpep constructs were transfected 24 h prior to collection, and no-peptide constructs were transfected 18 h before collection.
Expressed PTH1R-luciferase complementation constructs were vesiculated as previously described, with modifications for smaller sample volume[25]. Media in each well was used to gently shear and resuspend the cells by pipetting. The cell mixture was centrifuged (3 min, 300g) and the media was aspirated. Cell pellet was resuspended in 1 ml PBS and centrifuged again as above. Cells were resuspended again in 0.6 ml vesiculation buffer (10 mM HEPES pH 7.4, 150 mM NaCl, 20 mM CaCl2, 2 µg ml^−1 aprotinin, 2 µg ml^−1 leupeptin, 2 mM N-ethylmaleimide) and incubated at 30 °C with shaking at 180 rpm for 2 h. Cellular debris was removed by centrifugation (1,000g for 1 min). To collect additional vesicles, debris was resuspended in 0.3 ml PBS, briefly vortexed, and centrifuged again (1,000g for 1 min). The ~0.9 ml of combined decanted supernatant was centrifuged one additional time (1,000g for 2 min) to better remove cellular debris. Vesicles were collected by centrifugation (3,200g for 40 min at 4 °C) and washed in 0.5 ml assay buffer. Centrifugation step was repeated, and vesicles were resuspended in 0.1 ml assay buffer.
45 µl of each sample was transferred to an opaque 96-well flat bottom plate. 45 µl of Nano-Glo Substrate (Promega N1110) diluted 1:50 in assay buffer was added to each well in the new plate. After tapping the plate to collect liquid at the bottom of the well, a kinetic luminescence read was started (500 ms integration, continuous for 40 min) and luminescence signal was tracked. […] The plate was tapped 2–3 times to mix, and the kinetic read was resumed. Moving averages were computed for each kinetic trace (3-point averages for 5 min equilibration, 8-point moving averages post-drug treatment). Each kinetic trace was normalized to the last point of the pre-drug equilibration. The maximum luminescence value that appeared stable over time was used for further analysis. Specific Spep and Qpep signals were calculated by subtracting the control value from the Spep value and the Qpep value for a given experiment.
Protocol for β2AR L258Azi (Δ350-413): Solution was homogenized, first by passing through a 1 ml micropipette 10 times, then passing through a 20-gauge needle 10 times. To initiate the reaction, sodium ascorbate (50 mM) was added to the mixture and mixed by pipetting (2 ml final volume). Reactions were incubated with mild shaking (500 rpm) for 30 min at 25 °C. […] For conditions without drug, peptide or nanobody, an equivalent volume of assay buffer was added. Reactions were equilibrated for 5 min prior to reading.
Protocol for β2AR–mCerulean: Bio-Spep/Bio-Qpep (10 µM final) was added to the reaction mixture (300 µl final) and equilibrated on ice for 30 min. […] To the remaining 200 µl, 20 µl of 0.4 mg ml^−1 streptavidin-coated magnetic beads were added to the reaction mixture, equilibrated for 5 min at ambient temperature, and precipitated using a neodymium disc magnet N52 (20 × 40 mm). Fluorescence spectra was taken of the remaining supernatant in duplicate.

For HVQ-AAA, the “cAMP (Relative to Wild-Type Average)” value is 1.18 in the test with β2AR [1] (Average); 0.92 and 1.04 and 1.40 and 1.30 and 1.16 and 1.28 in the test with β2AR [1] (setting [15]).
As for NTS1, the “Specific Peptide Signal, Gs (Average)” value in the test on PTH1R–Gs peptide turned out to be 0.48. In addition, the “Specific Peptide Signal, Gq (Average)” value in the test with PTH1R–Gq peptide is on record as 0.14.
For CNR2, the “Specific Peptide Signal, Gs (Average)” value with PTH1R–Gs peptide is 0.55. Further, the “Specific Peptide Signal, Gq (Average)” value in the test on PTH1R–Gq peptide was 0.16.
As to `OC[C@H]1O[C@@H](n2cnc3c(NC4CCCC4)ncnc32)[C@H](O)[C@@H]1O` [N^6-cyclopentyladenosine], the “cAMP (AU), Average” value was -0.0258 AU on A1R [2] and 0.0561 AU on A1R [3]. Further, the “IP1 (AU), Average” value on A1R [4] turned out to be 0.15 AU; at A1R [5], 0.0652 AU.
5HT2A: the “Specific Peptide Signal, Gs (Average)” value in the test with PTH1R–Gs peptide is recorded as 0.37. For the same compound, in the test on PTH1R–Gq peptide, the “Specific Peptide Signal, Gq (Average)” value worked out at 0.0157.
In the case of Oregon Green, at β2AR L258Azi (Δ350-413), the “Fluorescence lifetime, Labeled Receptor, individual replicates 1-3” value is 2.34 and 2.19 and 2.32. In addition, the “Fluorescence lifetime, Labeled Receptor, Average” value on β2AR L258Azi (Δ350-413) (average of 3) was 2.28.
In the case of ADRB1, the “Specific Peptide Signal, Gs (Average)” value with PTH1R–Gs peptide stood at 0.47. Also, the “Specific Peptide Signal, Gq (Average)” value with PTH1R–Gq peptide is recorded as 0.0635.
As for “N-Biotin-DTENIRFVFAAVKDTILQLNLKEYNLV [Bio-Qpep]”, on β2AR–mCerulean, the “Specific mCerulean bound” value is 0.09 and 0.14 and 0.15 and 0.12.
In the case of Gamma-synuclein, the “Specific Peptide Signal, Gs (Average)” value with PTH1R–Gs peptide is on record as 0.39.
“DTENIRFVFAAVKDTILQLNLKEYNLV [Gq peptide]”: the “effect on FRET of β2AR–Gs peptide sensor” value was “enhanced FRET” in test [6] and “did not enhance FRET” in [7]. Further, the figures for the “effect on agonist binding affinity” value in the test on β2AR [8] and at β2AR [9] were “this effect was lost” and “increased agonist binding affinity”, respectively. Further, the “Donor-only sample (tau donor) Lifetime (ns)” value in test [10] (setting [16]) is 2.34 ns and 2.38 ns and 2.28 ns and 2.27 ns. Besides, the “FRET sample (tau FRET) Lifetime (ns)” value in [10] (setting [16]) is 2.42 ns (2×) and 2.32 ns and 2.40 ns. Also, the “effect on FRET of the ICL3 FRET sensor” value in test [10] (Gq peptide alone) is reported as “increased FRET to a similar level to the agonist alone”; in [10] (combination of agonist and Gq peptide), “decreased FRET”.
5HT1D: the “Specific Peptide Signal, Gs (Average)” value in the test on PTH1R–Gs peptide is listed as 0.24. The “Specific Peptide Signal, Gq (Average)” value with PTH1R–Gq peptide is -0.15.
For GPR27 the same measures were 0.79 and 0.14.
For HRH1 the same measures were 0.66 and -0.09.
As to Humanin, in the test with PTH1R–Gs peptide, the “Specific Peptide Signal, Gs (Average)” value is reported as 0.41.
For `CCCCC/C=C\C/C=C\C/C=C\C/C=C\CCCC(=O)OC(CO)CO` [2-Arachidonoylglycerol], the “cAMP (AU), Average” value at CB1R [11] worked out at 0.16 AU; on CB1R [12], 0.05 AU. Moreover, the results for the “IP1 (AU), Average” value on CB1R [13] and on CB1R [14] were 0.27 AU and 0.14 AU, respectively.
With QDG-AAA, the “cAMP (Relative to Wild-Type Average)” value in the test with β2AR [1] (Average) is 1.60; in the test on β2AR [1] (setting [15]), 1.35 and 1.62 and 1.56 and 1.90 and 1.60 and 1.57.
